Where “and” joins values, the source holds several entries; their conditions need not be identical. Equal values may be shown once.
How the values were obtained:
[1] = Identification of radiolabeled FAs in brain phospholipids by HPLC and LSC after 14C-EPA infusion; type: in vivo, rat; details: for percent of total radiolabeled FAs: brain total phospholipids;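 as to radiolabeled FA composition: percent of radiolabeled FAs within each phospholipid class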
Protocol: (§1) Twenty-four hours postsurgery, a second catheter (iv catheter 24 gauge/0.75 inch, Angiocath™; Becton Dickinson) was implanted into the tail vein where rats received either vehicle or 10 mg/kg of MEP. Ten minutes post injection of vehicle or MEP, the tail vein catheter was connected to a syringe containing radiolabeled ^14C-palmitate (n = 8), ^14C-DHA (n = 6), or ^14C-EPA (n = 7) attached to a computer-controlled variable speed pump (PHD 22/2000; Harvard Apparatus, Holliston, MA). […] Each rat received a dose of 76 μCi ^14C-palmitate, 76 μCi ^14C-DHA, or 78 μCi ^14C-EPA. […] The radiotracer infusions continued until rats were euthanized. The brain was excised and cut sagittally. Both hemispheres were stored at −80°C for radioactive and biochemical analyses. Plasma was isolated from whole blood via microcentrifugation at 6,200 rpm (2,000 g) for 5 min and stored at −80°C. Total lipids from one brain hemisphere and from plasma were extracted by the method of Folch, Lees, and Sloane Stanley ([39]). Isolation of various neutral lipid and phospholipid classes from the total lipid extract was previously described by Chen, Liu, and Bazinet ([6]). FA methyl esters and radioactive acyl-CoA analysis were previously described by Chen, Liu, and Bazinet ([6]).

[2] = system: mitochondrial FA β-oxidation; assay: Radioactivity in brain aqueous fraction (marker of β-oxidation) after 5 min intravenous 14C-tracer infusion; type: in vivo, rat; details: vehicle injection; 5 min iv infusion of tracer
Protocol: as §1, with “([6]).” for “([6]). FA methyl esters and radioactive acyl-CoA analysis were previously described by Chen, Liu, and Bazinet ([6]).”

[3] = Radioactivity in brain lipid fractions after 5 min intravenous 14C-tracer infusion (TLC, LSC); type: in vivo, rat; details: not adjusted for percent composition of 14C-EPA
Protocol: as §1

[4] = In vivo kinetics of FA incorporation and turnover in brain phospholipids (intravenous radiotracer infusion, kinetic model); parameters: species or system rat
Protocol: Twenty-four hours postsurgery, a second catheter (iv catheter 24 gauge/0.75 inch, Angiocath™; Becton Dickinson) was implanted into the tail vein where rats received either vehicle or 10 mg/kg of MEP. […] The radiotracers were infused for 5 min via the tail vein catheter at a rate of 0.223(1 + e^−19.2t) ml/min (t is infusion time in minutes) ([37]) which achieves a steady-state plasma radioactivity within 1 min ([18], [38]). […] During the 5 min infusion, blood samples were collected from the jugular vein at approximately 0, 0.25, 0.5, 0.75, 1.5, 3, 4, and 5 min while the unanesthetized rat was mobile in the infusion box with food and water. […] After 5 min, the rats were rapidly euthanized by head-focused high-energy microwave irradiation (13.5 kW for 1.6 s; Cober Electronics Inc., Stratford, CT). The radiotracer infusions continued until rats were euthanized. The brain was excised and cut sagittally. Both hemispheres were stored at −80°C for radioactive and biochemical analyses. Plasma was isolated from whole blood via microcentrifugation at 6,200 rpm (2,000 g) for 5 min and stored at −80°C.
The model for in vivo kinetics of brain FAs in rats has been previously described ([17], [18], [21], [23], [25], [37], [41]).
Because the infusion is 5 min, contributions of FA from de novo synthesis and esterified plasma FA are negligible ([18], [20], [23], [41]); thus only contributions from plasma unesterified FAs and acyl-CoA pools were considered in the calculation of λpalmitate, DHA, or EPA .

[5] = cited from earlier work

radiolabeled FA composition ([1]; ChoGpl, MEP-treated rats): 66%
radiolabeled FA composition ([1]; ChoGpl, vehicle-treated rats): 65%
radiolabeled FA composition ([1]; EtnGpl, MEP-treated rats): 25%
radiolabeled FA composition ([1]; EtnGpl, vehicle-treated rats): 24%
radiolabeled FA composition ([1]; PtdIns, MEP-treated rats): 65%
radiolabeled FA composition ([1]; PtdIns, vehicle-treated rats): 66%
radiolabeled FA composition ([1]; PtdSer, MEP-treated rats): 54%
radiolabeled FA composition ([1]; PtdSer, vehicle-treated rats): 44%
percent of total radiolabeled FAs ([1]; MEP-treated rats): 56%
percent of total radiolabeled FAs ([1]; vehicle-treated rats): 62%
radioactivity of brain aqueous fraction [2]: 21 nCi/g brain
total radioactivity in brain total phospholipids ([3]; MEP): 22 ± 0.6 nCi/g brain
total radioactivity in brain total phospholipids ([3]; vehicle): 17 ± 0.9 nCi/g brain
FFA rate of turnover ([4]; ChoGpl, MEP): 28 ± 4.5 %/day
JFA net incorporation rate from brain acyl-CoA ([4]; ChoGpl, MEP): 16 ± 2.3 nmol/g/day
Jin net incorporation rate from plasma unesterified FA ([4]; ChoGpl, MEP): 3.7 ± 0.31^! nmol/g/day
FFA rate of turnover ([4]; ChoGpl, Vehicle): 46 ± 6.9 %/day
JFA net incorporation rate from brain acyl-CoA ([4]; ChoGpl, Vehicle): 23 ± 3.3 nmol/g/day
Jin net incorporation rate from plasma unesterified FA ([4]; ChoGpl, Vehicle): 2.8 ± 0.55 nmol/g/day
FFA rate of turnover ([4]; EtnGpl, MEP): 9.5 ± 3.3 %/day
JFA net incorporation rate from brain acyl-CoA ([4]; EtnGpl, MEP): 5.4 ± 1.4 nmol/g/day
Jin net incorporation rate from plasma unesterified FA ([4]; EtnGpl, MEP): 1.2 ± 0.17 nmol/g/day
FFA rate of turnover ([4]; EtnGpl, Vehicle): 8.4 ± 0.81 %/day
JFA net incorporation rate from brain acyl-CoA ([4]; EtnGpl, Vehicle): 6.4 ± 1.3 nmol/g/day
Jin net incorporation rate from plasma unesterified FA ([4]; EtnGpl, Vehicle): 0.78 ± 0.19 nmol/g/day
λ dilution factor ([4]; MEP): 0.24 ± 0.022
FFA rate of turnover ([4]; PtdIns, MEP): 17 ± 6.6 %/day
JFA net incorporation rate from brain acyl-CoA ([4]; PtdIns, MEP): 3.0 ± 1.4 nmol/g/day
Jin net incorporation rate from plasma unesterified FA ([4]; PtdIns, MEP): 0.73 ± 0.41 nmol/g/day
FFA rate of turnover ([4]; PtdIns, Vehicle): 24 ± 1.7 %/day
JFA net incorporation rate from brain acyl-CoA ([4]; PtdIns, Vehicle): 4.5 ± 0.2 nmol/g/day
Jin net incorporation rate from plasma unesterified FA ([4]; PtdIns, Vehicle): 0.52 ± 0.087 nmol/g/day
FFA rate of turnover ([4]; PtdSer, MEP): 3.1 ± 0.43 %/day
JFA net incorporation rate from brain acyl-CoA ([4]; PtdSer, MEP): 1.2 ± 0.13 nmol/g/day
Jin net incorporation rate from plasma unesterified FA ([4]; PtdSer, MEP): 0.29 ± 0.057 nmol/g/day
FFA rate of turnover ([4]; PtdSer, Vehicle): 3.1 ± 0.56 %/day
JFA net incorporation rate from brain acyl-CoA ([4]; PtdSer, Vehicle): 1.4 ± 0.36 nmol/g/day
Jin net incorporation rate from plasma unesterified FA ([4]; PtdSer, Vehicle): 0.17 ± 0.055 nmol/g/day
FFA rate of turnover ([4]; Total PL, MEP): 17 ± 2.3 %/day
JFA net incorporation rate from brain acyl-CoA ([4]; Total PL, MEP): 31 ± 4.8 nmol/g/day
Jin net incorporation rate from plasma unesterified FA ([4]; Total PL, MEP): 7.3 ± 0.7^! nmol/g/day
FFA rate of turnover ([4]; Total PL, Vehicle): 21 %/day and 21 ± 2.9 %/day
JFA net incorporation rate from brain acyl-CoA ([4]; Total PL, Vehicle): 47 ± 5.7 nmol/g/day
Jin net incorporation rate from plasma unesterified FA ([4]; Total PL, Vehicle): 5.7 nmol/g/day and 5.7 ± 1.1 nmol/g/day
Jin as percent of the Jout ([4]; rat, in vivo): 36%
recycling into brain phospholipids, fold lower than DHA ([4]; rat, in vivo): 154 fold
λ dilution factor ([4]; vehicle): 0.12 ± 0.014 and 0.12 ± 0.01
SMILES: CC/C=C\C/C=C\C/C=C\C/C=C\C/C=C\CCCC(=O)O [EPA, eicosapentaenoic acid]
Jout net rate of loss from brain phospholipids [5]: 16 nmol/g/day
loss t1/2 from brain phospholipids [5]: 120 h
rate of loss from brain phospholipids [5]: 14 % per day
